Experimental data published in patent publication US20250115598A1 (Anaxis Pharma Pty Ltd, priority 2021, published 2025).
Like-named read-outs stand apart in the source and are kept apart here.

Columns and labels:
[1] = system: Immortalised Mouse Dermal Fibroblasts (MDFs); assay: Cellular assay: inhibition of TSI induced necroptosis, CellTitre-Glo viability; conditions: Mus musculus, Fibroblast, MDF, 3 hours TSI cocktail, read-out: Inhibition of TSI-induced necroptosis (IC50 cell-based assay) in MDF
Method: Cellular Assay: Screening Compounds for Inhibition of TSI Induced Necroptosis in, 384 Well Plate Format.
• Cell Line ID: Immortalised Mouse Dermal Fibroblasts (MDFs). • Cell Concentration (cells/well): Final cell density is 2200 cells per well. • Cell growth medium: DMEM medium+7.4% Fetal Bovine Serum (FBS). Cells are cultured in Corning 150 cm^2 tissue culture flasks with vented caps at 37° C./10% CO2. • Incubation: Plates were incubated for 30 minutes following addition of compounds and then 3 hours incubation with death stimuli (TSI cocktail) at 37° C./10% CO2 in a humidified incubator. • Compound concentration: 36 μM starting concentration, 1:3 dilution, 10 point • DMSO final concentration (% v/v): 0.3%. Compounds in TSI Cocktail (T: TNF; S: Smac Mimetic; I: IDN-6556) and their Final Concentrations: • rhTNF (100 ng/ml) • Compound a (500 nM)—Smac Mimetic, Tetralogic and SYNthesis Med Chem • IDN-6556 (10 μM)—Selleckchem (S7775)
The cellular assay was carried out according to the following steps: • 1. Each well was prepared by sequential addition of: • a. 40 μL of cell suspension (5.5×10^4 cells/mL) was added to each well to provide a final cell concentration of 2,200 cells per well. • b. After 24 hours, DMSO (control; columns 1-2 and 23-24) or compound in DMSO—addition was performed using acoustic transfer of nL volumes of stock compound to give final test concentrations of 36, 12, 4, 1.3, 0.44, 0.148, 0.049, 0.016, 0.005 and 0.002 μM. All wells were backfilled with DMSO to a final total volume in the well of 100 nL. • c. Following compound/DMSO addition in step (b), Plates were incubated for 30 minutes at 37° C./10% CO2 in a humidified incubator and then 10 μL of 5×TSI cocktail (except to positive controls; columns 2 and 24) was added to each well. • 2. After 3 hours, plate was removed from the 37° C. incubator and equilibrated to room temperature for 15 minutes. • 3. 15 μL of room temperatured CellTitre-Glo2™ (Promega™) was added to each well. • 4. Shook plates for 2 minutes (˜600 rpm) and incubated at room temperature for 15 minutes to allow signal to stabilise. • 5. Read luminescence readout on a plate reader.
Percent viability was calculated for each compound according to equation (2):
[formula] • Wherein RawData is the readout of any cell containing a compound of the invention.
TA is the total activity provided by the luminescence readout from DMSO only wells (columns 2 and 24)=100% viability.
NSA is the non-specific activity provided by DMSO+TSI wells (columns 1 and 23)=0% viability • Curve fitting: 10-point titration curves are fitted with the 4-parameter logistic nonlinear regression model and the IC50 reported is the inflection point of the curve • Analysis: Data was loaded into Dotmatics™ and visualised using the Tibco@ • Spotfire™ software. 10 point titration curves were fitted with the 4 parameter logistic nonlinear regression model and the IC50 reported reflect the inflection point of the curve for curve fitting.
Assay involving the TSI cocktail (T: TNF; S: Smac mimetic; I: IDN-6556): TSI treatment ensures that cells specifically undergo necroptotic cell death. TNF activates the TNF receptor, Smac mimetic directs the signal away from proinflammatory signaling and toward the RIPK1/RIPK3-mediated cell death pathways, and IDN-6556 (Caspase inhibitor) ensures that the apoptotic response is blocked leaving only the programmed necrosis response. The compounds' activity (solution in DMSO) tested in this TSI-induced assay was evaluated by determining the number of viable cells in culture by measuring the amount of ATP present as measured by CelltiterGlo.

human MLKL (full length) = human MLKL (full length) (Homo sapiens (Human), UniProt Q8NB16); assay: KINOMEscan binding assay, human MLKL (full length); conditions: hMLKL, Table 25; read-out: MLKL (KD)
Sequence of human MLKL (full length) (Q8NB16 whole entry): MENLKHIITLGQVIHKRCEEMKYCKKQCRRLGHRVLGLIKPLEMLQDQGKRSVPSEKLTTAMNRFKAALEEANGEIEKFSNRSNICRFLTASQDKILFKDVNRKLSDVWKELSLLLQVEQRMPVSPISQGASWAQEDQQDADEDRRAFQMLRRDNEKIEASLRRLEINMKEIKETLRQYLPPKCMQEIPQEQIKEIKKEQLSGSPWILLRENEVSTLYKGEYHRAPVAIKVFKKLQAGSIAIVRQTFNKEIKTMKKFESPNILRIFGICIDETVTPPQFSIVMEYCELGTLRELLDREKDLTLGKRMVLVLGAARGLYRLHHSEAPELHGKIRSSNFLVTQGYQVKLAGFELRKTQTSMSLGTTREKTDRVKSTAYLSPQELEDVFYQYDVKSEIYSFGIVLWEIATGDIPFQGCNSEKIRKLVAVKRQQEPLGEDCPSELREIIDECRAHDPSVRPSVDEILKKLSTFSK
In short: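 In this assay, compounds displace DNA- or phage-tagged kinase from an immobilized ligand, and eluted kinase is quantified by qPCR.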

SMILES | Kd (human MLKL (full length)) [nM] | IC50 ([1]; Table 24) [nM] | IC50 ([1]; Table 27) [nM]
C[C@H](Oc1cc(-c2nn(C)c3c(-c4cnn(C5CCNC(C(F)(F)F)C5)c4)cnc(N)c23)ccc1NS(=O)(=O)C(F)F)c1ccc(F)cc1 (stereo partly drawn) [Compound 149, N-(4-(4-amino-1-methyl-7-(1-(2-(trifluorometh-yl)piperidin-4-yl)-1H-pyrazol-4-yl)-1H-pyrazolo[4,3-c]pyridin-3-yl)-2-((S)-1-(4-fluoro-phenyl)ethoxy)phenyl)-1,1-difluoro-methanesulfonamide] | – | < 1000 | –
[2H]C([2H])([2H])N1CCC(n2cc(-c3cnc(N)c4c(-c5ccc(NS(=O)(=O)C(F)F)c(O[C@@H](C)c6ccc(F)cc6)c5)nn(C)c34)cn2)CC1(C)C (stereo partly drawn) [Compound 152, N-(4-(4-amino-7-(1-(2,2-dimethyl-1-(methyl-d3)piperidin-4-yl)-1H-pyrazol-4-yl)-1-methyl-1H-pyrazolo[4,3-c]pyridin-3-yl)-2-((S)-1-(4-fluorophenyl)ethoxy)phenyl)-1,1-difluoromethanesulfonamide] | – | < 1000 | –
Cc1ncsc1-c1ccc(CNC(=O)[C@@H]2C[C@@H](O)CN2C(=O)[C@@H](NC(=O)CCCCC#Cc2cnc(N)c3c(-c4ccc(NS(=O)(=O)C(F)F)c(O[C@@H](C)c5ccc(F)cc5)c4)nn(C)c23)C(C)(C)C)cc1 [Compound 1026, (2S,4R)-1-[(2S)-2-(7-{4-amino-3-[4-(difluoromethanesulfonamido)-3-[(1S)-1-(4-fluorophenyl)ethoxy]phenyl]-1-methyl-1H-pyrazolo[4,3-c]pyridin-7-yl}hept-6-ynamido)-3,3-dimethylbutanoyl]-4-hydroxy-N-{[4-(4-methyl-1,3-thiazol-5-yl)phenyl]methyl}pyrrolidine-2-carboxamide] | 10 to 1000 | – | 1000 to 10000
Cc1ncsc1-c1ccc(CNC(=O)[C@@H]2C[C@@H](O)CN2C(=O)[C@@H](NC(=O)CCCCOC(=O)c2ccc(-c3cnc(N)c4c(-c5ccc(NS(=O)(=O)C(F)F)c(O[C@@H](C)c6ccc(F)cc6)c5)nn(C)c34)cc2)C(C)(C)C)cc1 [Compound 1064, 4-{[(2S)-1-[(2S,4R)-4-hydroxy-2-({[4-(4-methyl-1,3-thiazol-5-yl)phenyl]methyl}carbamoyl)pyrrolidin-1-yl]-3,3-dimethyl-1-oxobutan-2-yl]carbamoyl}butyl 4-{4-amino-3-[4-(difluoromethanesulfonamido)-3-[(1 S)-1-(4-fluorophenyl)ethoxy]phenyl]-1-methyl-1H-pyrazolo[4,3-c]pyridin-7-yl}benzoate] | 10 to 1000 | – | 1000 to 10000
C[C@H](Oc1cc(-c2nn(C)c3c(-c4cnn(C5CCN(C(=O)CC6CN(c7cccc8c7C(=O)N(C7CCC(=O)NC7=O)C8=O)C6)CC5)c4)cnc(N)c23)ccc1NS(=O)(=O)C(F)F)c1ccc(F)cc1 (stereo partly drawn) [Compound 1112, N-[4-(4-amino-7-{1-[1-(2-{1-[2-(2,6-dioxopiperidin-3-yl)-1,3-dioxo-2,3-dihydro-1H-isoindol-4-yl]azetidin-3-yl}acetyl)piperidin-4-yl]-1H-pyrazol-4-yl}-1-methyl-1H-pyrazolo[4,3-c]pyridin-3-yl)-2-[(1S)-1-(4-fluorophenyl)ethoxy]phenyl]-1,1-difluoromethanesulfonamide] | < 10 | – | 1000 to 10000

Further lines, with some results ahead:

Kd (human MLKL (full length)) [nM] | SMILES | IC50 ([1]; Table 24) [nM] | IC50 ([1]; Table 27) [nM]
< 10 | Cc1ncsc1-c1ccc(CNC(=O)[C@@H]2C[C@@H](O)CN2C(=O)[C@@H](NC(=O)C2(F)CC2)C(C)(C)C)c(OCCOCCOCCOCCn2cc(-c3cnc(N)c4c(-c5ccc(NS(=O)(=O)C(F)F)c(O[C@@H](C)c6ccc(F)cc6)c5)nn(C)c34)cn2)c1 [Compound 1061, (2S,4R)-N-({2-[2-(2-{2-[2-(4-{4-amino-3-[4-(difluoromethanesulfonamido)-3-[(1S)-1-(4-fluorophenyl)ethoxy]phenyl]-1-methyl-1H-pyrazolo[4,3-c]pyridin-7-yl}-1H-pyrazol-1-yl)ethoxy]ethoxy}ethoxy)ethoxy]-4-(4-methyl-1,3-thiazol-5-yl)phenyl}methyl)-1-[(2S)-2-[(1-fluorocyclopropyl)formamido]-3,3-dimethylbutanoyl]-4-hydroxypyrrolidine-2-carboxamide] | – | 1000 to 10000
< 10 | C[C@H](Oc1cc(-c2nn(C)c3c(-c4cnn(CCCCCCC(=O)Nc5cccc6c5CN(C5CCC(=O)NC5=O)C6=O)c4)cnc(N)c23)ccc1NS(=O)(=O)C(F)F)c1ccc(F)cc1 (stereo partly drawn) [Compound 1062, 7-(4-{4-amino-3-[4-(difluoromethanesulfonamido)-3-[(1S)-1-(4-fluorophenyl)ethoxy]phenyl]-1-methyl-1H-pyrazolo[4,3-c]pyridin-7-yl}-1H-pyrazol-1-yl)-N-[2-(2,6-dioxopiperidin-3-yl)-1-oxo-2,3-dihydro-1H-isoindol-4-yl]heptanamide] | – | 1000 to 10000
< 10 | Cc1ncsc1-c1ccc(CNC(=O)[C@@H]2C[C@@H](O)CN2C(=O)[C@@H](NC(=O)CCCCCn2cc(-c3cnc(N)c4c(-c5ccc(NS(=O)(=O)C(F)F)c(O[C@@H](C)c6ccc(F)cc6)c5)nn(C)c34)cn2)C(C)(C)C)cc1 [Compound 1066, (2S,4R)-1-[(2S)-2-[6-(4-{4-amino-3-[4-(difluoromethanesulfonamido)-3-[(1S)-1-(4-fluorophenyl)ethoxy]phenyl]-1-methyl-1H-pyrazolo[4,3-c]pyridin-7-yl}-1H-pyrazol-1-yl)hexanamido]-3,3-dimethylbutanoyl]-4-hydroxy-N-{[4-(4-methyl-1,3-thiazol-5-yl)phenyl]methyl}pyrrolidine-2-carboxamide] | – | 1000 to 10000
< 10 | Cc1ncsc1-c1ccc(CNC(=O)[C@@H]2C[C@@H](O)CN2C(=O)[C@@H](NC(=O)CCCCCCCn2cc(-c3cnc(N)c4c(-c5ccc(NS(=O)(=O)C(F)F)c(O[C@@H](C)c6ccc(F)cc6)c5)nn(C)c34)cn2)C(C)(C)C)cc1 [Compound 1067, (2S,4R)-1-[(2S)-2-[8-(4-{4-amino-3-[4-(difluoromethanesulfonamido)-3-[(1S)-1-(4-fluorophenyl)ethoxy]phenyl]-1-methyl-1H-pyrazolo[4,3-c]pyridin-7-yl}-1H-pyrazol-1-yl)octanamido]-3,3-dimethylbutanoyl]-4-hydroxy-N-{[4-(4-methyl-1,3-thiazol-5-yl)phenyl]methyl}pyrrolidine-2-carboxamide] | – | < 1000
< 10 | C[C@H](Oc1cc(-c2nn(C)c3c(-c4cnn(C5CCN(C(=O)c6cccc(C(=O)NC7CCC(=O)NC7=O)c6)CC5)c4)cnc(N)c23)ccc1NS(=O)(=O)C(F)F)c1ccc(F)cc1 (stereo partly drawn) [Compound 1084, 3-[4-(4-{4-amino-3-[4-(difluoromethanesulfonamido)-3-[(1S)-1-(4-fluorophenyl)ethoxy]phenyl]-1-methyl-1H-pyrazolo [4,3-c]pyridin-7-yl}-1H-pyrazol-1-yl)piperidine-1-carbonyl]-N-(2,6-dioxopiperidin-3-yl)benzamide] | – | 1000 to 10000
< 10 | C[C@H](Oc1cc(-c2nn(C)c3c(-c4cnn(C5CCN(C(=O)c6ccc(C(=O)NC7CCC(=O)NC7=O)cc6)CC5)c4)cnc(N)c23)ccc1NS(=O)(=O)C(F)F)c1ccc(F)cc1 (stereo partly drawn) [Compound 1086, 4-[4-(4-{4-amino-3-[4-(difluoromethanesulfonamido)-3-[(1S)-1-(4-fluorophenyl)ethoxy]phenyl]-1-methyl-1H-pyrazolo[4,3-c]pyridin-7-yl}-1H-pyrazol-1-yl)piperidine-1-carbonyl]-N-(2,6-dioxopiperidin-3-yl)benzamide] | – | 1000 to 10000
